Measured values from patent US11116757B2 (priority 2015, dated 2021).

target: DCN1-UBC12 interaction (Homo sapiens (Human), UniProt Q96GG9); assay: biochemical; type: binding; conditions: TR-FRET IC50
Sequence (Q96GG9 60-248 limits assumed): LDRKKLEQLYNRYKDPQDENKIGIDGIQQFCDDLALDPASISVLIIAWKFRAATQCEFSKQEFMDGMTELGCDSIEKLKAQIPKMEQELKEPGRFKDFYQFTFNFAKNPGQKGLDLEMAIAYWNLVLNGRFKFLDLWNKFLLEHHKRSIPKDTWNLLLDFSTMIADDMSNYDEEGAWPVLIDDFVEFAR

Compound	IC50 [µM]
COc1ccccc1CN1CCC(N(Cc2ccccc2)C(=O)Nc2cc(F)cc(C(F)(F)F)c2)CC1 [A224]	> 25.3

same assay, conditions: Table 4, commercial compounds; read-out: TR-FRET IC50

Compound	IC50 [µM]
O=C(Nc1cccc(Br)c1)C1CCN(C(=O)c2cccc(Cl)c2)CC1 [C3]	22.4
COc1ccc(NC(=O)C2CCN(C(=O)c3ccccc3C)CC2)c(OC)c1 [C21]	> 67.6
O=C(Nc1ccc(I)cc1)C1CCN(C(=O)c2ccco2)CC1 [C30]	> 67.6
CC(=O)Nc1cccc(NC(=O)C2CCN(C(=O)c3ccco3)CC2)c1 [C39]	> 67.6
O=C(Nc1ccc(Cl)c(C(F)(F)F)c1)C1CCN(C(=O)c2ccc(Br)cc2)CC1 [C29]	> 67.6
COc1ccc(NC(=O)C2CCN(C(=O)c3cnn(-c4ccccc4)c3-n3cccc3)CC2)cc1 [C49]	> 67.6
CSc1cccc(NC(=O)C2CCN(C(=O)c3cnn(-c4ccccc4)c3-n3cccc3)CC2)c1 [C9]	> 76.7
O=C(Nc1ccc(Cl)cc1Cl)C1CCN(C(=O)c2ccc(F)cc2)CC1 [C15]	> 67.6
Cc1ccccc1C(=O)N1CCC(C(=O)Nc2c(F)cccc2F)CC1 [C36]	> 67.6
O=C(Nc1cccc(C(F)(F)F)c1)C1CCN(C(=O)Cc2ccccc2)CC1 [C12]	> 65.9
COc1ccc(C(=O)N2CCC(C(=O)Nc3ccc(F)c(Cl)c3)CC2)cc1 [C16]	> 67.6

same assay, conditions: Table 6, commercial compounds; read-out: TR-FRET IC50

Compound	IC50 [µM]
CCN(CC)CCNC(=O)c1cnn(-c2nccc(-c3cccs3)n2)c1C [E54]	> 67.6
CC(=O)N1CCN(C(=O)c2cnn(-c3ncc(C)c(-c4cccs4)n3)c2C2CC2)CC1 [E50]	> 67.6
Cc1cnc(-n2ncc(C(=O)N3CCN(C)CC3)c2C2CC2)nc1-c1cccs1 [E55]	> 67.6
CCCN1CCN(C(=O)c2cnn(-c3ncc(C)c(-c4cccs4)n3)c2COC)CC1 [E11]	26
CCN(CC)CCN(CC)C(=O)c1cnn(-c2ncc(C)c(-c3cccs3)n2)c1COC [E16]	33.3
CCN(CC)C(=O)c1cnn(-c2nccc(-c3cccs3)n2)c1C [E25]	63
Cc1cnc(-n2ncc(C(=O)N(C)CC(C)C)c2C)nc1-c1cccs1 [E41]	> 67.6
COCCN1CCN(C(=O)c2cnn(-c3nccc(-c4cccs4)n3)c2C(C)C)CC1 [E17]	34.4

same assay, conditions: Table 7, commercial compounds; read-out: TR-FRET IC50

Compound	IC50 [µM]
Cc1cccc(C(=O)NC2C(=O)Nc3c(c(C)nn3C)C2c2cccc(C)c2)c1 (stereo not shown) [F32]	> 67.6
COc1ccc(C2c3c(C)nn(C)c3NC(=O)C2NC(=O)c2cccc(C)c2)cc1OC (stereo not shown) [F14]	> 67.6
Cc1cccc(C2c3c(C)nn(C)c3NC(=O)C2NC(=O)c2ccccc2)c1 (stereo not shown) [F33]	> 80.3

same assay, conditions: read-out: TR-FRET IC50

Compound	IC50 [µM]
1-(1-(2-Methylbenzyl)Piperidin-4-yl)-3-(3-(Trifluoromethyl)Phenyl)Urea [A137]	3.8
O=C(c1ccc(Br)cc1)N1CCC(c2nc3ccccc3s2)CC1 [D9]	21.8
CC(C)C(C)N1CCC(N(Cc2ccccc2)C(=O)Nc2cc(F)cc(C(F)(F)F)c2)CC1 (stereo not shown) [A122]	1.12
CCCN1CCC(NC(=O)Nc2ccc(Cl)c(Cl)c2)CC1 [B56]	> 67.6
CCCC(C)N1CCC(N(Cc2ccccc2)C(=O)Nc2cc(OC)c(OC)c(OC)c2)CC1 (stereo not shown) [A246]	> 55.6
CCCCN1CCC(N(Cc2ccccc2)C(=O)Nc2cc(F)cc(F)c2)CC1 [A142]	4.26
CCC(C)CN1CCC(N(Cc2ccccc2)C(=O)Nc2cc(F)cc(C(F)(F)F)c2)CC1 (stereo not shown) [A121]	1
CCCC(C)N1CCC(N(Cc2ccccc2)C(=O)Nc2ccc3c(c2)OC(F)(F)O3)CC1 (stereo not shown) [A52]	0.281
CCN1CCC(N(Cc2ccco2)C(=O)Nc2ccc(Br)c(C)c2)CC1 [B2]	3
Cc1cccc(CN(C(=O)Nc2cccc(C(F)(F)F)c2)C2CCN(Cc3ccccc3)CC2)n1 [B5]	5.64
CCCC(C)N1CCC(N(Cc2ccccc2)C(=O)Nc2ccc3c(c2)OCO3)CC1 (stereo not shown) [A86]	0.991
CCCC(C)N1CCC(N(Cc2ccccc2)C(=O)Nc2ccc(C)cc2Cl)CC1 (stereo not shown) [A175]	13.6
O=C(Nc1cc(F)cc(C(F)(F)F)c1)N(Cc1ccccc1)C1CCN(Cc2nc3ccccc3s2)CC1 [A222]	> 25.2
1-Benzyl-1-(1-Hexylpiperidin-4-yl)-3-(3-(Trifluoromethyl)Phenyl)Urea [A289]	> 73.2
CCCCN1CCC(N(Cc2ccccc2)C(=O)Nc2cncc(C(F)(F)F)c2)CC1 [A262]	> 63.4
CCCC(C)N1CCC(N(Cc2cccc(NC(=O)CCl)c2)C(=O)Nc2cccc(C(F)(F)F)c2)CC1 (stereo not shown) [A17]	0.0951
C=CS(=O)(=O)NCCCN(C(=O)Nc1cccc(C(F)(F)F)c1)C1CCN(C(C)CCC)CC1 (stereo not shown) [drawing 838]	> 24
O=C(Nc1ccc(F)cc1)NC1CCN(Cc2ccccc2)CC1 [B43]	> 64.5
CCCC(C)N1CCC(N(Cc2ccccc2)C(=O)Nc2ccc(C(=O)OC)cc2Cl)CC1 (stereo not shown) [A189]	37.8
CCCC(C)N1CCC(N(CCCNC(=O)CCl)C(=O)Nc2cccc(C(F)(F)F)c2)CC1 (stereo not shown) [A245]	> 53.9
CCCC(C)N1CCC(N(Cc2ccccc2)C(=O)Nc2ccc(C)c(C)c2)CC1 (stereo not shown) [A31]	0.184
CCOc1ccccc1NC(=O)N(C(C)C)C1CCN(C(C)=O)CC1 [B67]	> 67.6
O=C(Nc1ccc2c(c1)OC(F)(F)O2)NC1CCN(C(=O)c2ccccc2)CC1 [B114]	> 74.1

Compound	IC50 [µM]
CCCCN1C(C)(C)CC(N(Cc2ccccc2)C(=O)Nc2cccc(C(F)(F)F)c2)CC1(C)C [A188]	34.3
CSc1cccc(NC(=O)NC2CCN(Cc3ccccc3)CC2)c1 [B44]	> 64.5
CCCC(C)N1CCC(N(Cc2ccccc2)C(=O)Nc2cc(Cl)ccc2F)CC1 (stereo not shown) [A159]	7.72
Cc1ccc(CN(C(=O)Nc2cccc(C(F)(F)F)c2)C2CCN(Cc3ccccc3)CC2)o1 [B1]	2.73
CCCC(C)N1CCC(N(Cc2ccccc2)C(=O)Nc2ccc(CN3CCCC3)cc2)CC1 (stereo not shown) [A247]	> 58.5
CCN1CCC(NC(=O)Nc2cccc(C(F)(F)F)c2)CC1 [B15]	49.7
CCN1CCC(NC(=O)Nc2cc(Cl)ccc2Cl)CC1 [B54]	> 67.6
CCCC(C)N1CCC(N(Cc2ccccc2)C(=O)Nc2cccc(OC(C)C)c2)CC1 (stereo not shown) [A132]	3.17
CCCC(C)N1CCC(N(Cc2ccccc2)C(=O)Nc2cccc(C)c2C)CC1 (stereo not shown) [A271]	> 67.5
C=CC(=O)NCCCN(C(=O)Nc1cccc(C(F)(F)F)c1)C1CCN(C(C)CCC)CC1 (stereo not shown) [A134]	3.34
Cc1ccc(CN2CCC(N(Cc3ccccc3)C(=O)Nc3cc(F)cc(C(F)(F)F)c3)CC2)o1 [A219]	> 24.2
O=C(Nc1cccc(C(F)(F)F)c1)N1CCN(C(c2ccccc2)c2ccccc2)CC1 [B40]	> 62.8
CC(=O)N1CCC(N(Cc2ccc(C)o2)C(=O)Nc2cc(Cl)ccc2Cl)CC1 [B89]	> 67.6
CCCC(C)N1CCC(N(Cc2ccccc2)C(=O)Nc2ccc(OC)cc2OC)CC1 (stereo not shown) [A197]	> 111
CC1CN(Cc2ccccc2)CCC1N(C)C(=O)Nc1cccc2cnccc12 (stereo not shown) [B23]	> 113
C=CS(=O)(=O)NCCN(C(=O)Nc1cccc(C(F)(F)F)c1)C1CCN(C(C)CCC)CC1 (stereo not shown) [drawing 839]	> 41
CCCC(C)N1CCC(N(Cc2ccccc2)C(=O)Nc2cc(Cl)ccc2Cl)CC1 (stereo not shown) [A152]	6.27
CCCC(C)N1CCC(N(Cc2ccccc2)C(=O)Nc2ccc(Cl)cc2C(=O)OC)CC1 (stereo not shown) [A266]	> 66.2
CCN1CCC(N(Cc2ccco2)C(=O)Nc2ccc(C)c(F)c2)CC1 [B11]	23.8
O=C(Nc1cccc2ccccc12)NC1CCN(Cc2ccccc2)CC1 [B39]	> 61.8
COc1ccc(C(=O)N2CCC(NCc3ccc(C)cc3)CC2)cc1 [A194]	> 10.3
CN(C)c1ccc(CN2CCC(N(Cc3ccccc3)C(=O)Nc3cc(F)cc(C(F)(F)F)c3)CC2)cc1 [A209]	> 21.5
CCCC(C)N1CCC(N(Cc2ccccc2)C(=O)Nc2ccc(Cl)cc2F)CC1 (stereo not shown) [A91]	1.19

Compound	IC50 [µM]
CCCC(C)N1CCC(N(Cc2ccccc2)C(=O)Nc2cc(S(F)(F)(F)(F)F)ccc2F)CC1 (stereo not shown) [A107]	2.05
CCCC(C)N1CCC(N(CCNC(=O)CCl)C(=O)Nc2cccc(C(F)(F)F)c2)CC1 (stereo not shown) [A251]	> 59.9
Cc1cccc(NC(=O)NC2CCN(Cc3ccccc3)CC2)c1 [B57]	> 67.6
1-(1-((1H-Imidazol-4-yl)Methyl)Piperidin-4-yl)-1-Benzyl-3-(3-(Trifluoromethyl)Phenyl)Urea [A184]	29
CCCCN1CCC(N(Cc2ccccc2)C(=O)Nc2cccc([N+](=O)[O-])c2)CC1 [A104]	1.85
COc1ccccc1N1CCN(CC(=O)Nc2cccc(C(F)(F)F)c2)CC1 [B107]	> 72.3
O=C(NCCN1CCN(Cc2ccccc2C(F)(F)F)CC1)Nc1ccccc1 [B48]	> 67
O=C(Nc1cccc(C(F)(F)F)c1)NC1CCN(C(=O)c2ccccc2)CC1 [A306, 1-(1-Benzoylpiperidin-4-yl)-3-(3-(Trifluoromethyl)Phenyl)Urea]	> 98.1
CCCC(C)N1CCC(N(Cc2ccccc2)C(=O)Nc2cccc(C(C)(C)C)c2)CC1 (stereo not shown) [A140]	4.2
CCCC(C)N1CCC(N(Cc2ccccc2)C(=O)Nc2cc(C(F)(F)F)ccc2F)CC1 (stereo not shown) [A154]	6.51
CCOC(=O)Cc1ccc(NC(=O)N(Cc2ccco2)C2CCN(C(C)=O)CC2)cc1 [B75]	> 67.6
CCCC(C)N1CCC(N(Cc2ccccc2)C(=O)Nc2ccc(C)nc2Br)CC1 (stereo not shown) [A240]	> 51.7
CCCC(C)N1CCC(N(Cc2ccccc2)C(=O)Nc2cccc(Cl)c2F)CC1 (stereo not shown) [A62]	0.385
CCCC(C)N1CCC(N(Cc2ccccc2)C(=O)Nc2ccccc2CC)CC1 (stereo not shown) [A270]	> 67.3
CCCCN1CCC(CC(=O)OC)(NC(=O)Nc2cccc(C(F)(F)F)c2)CC1 [A254]	> 60.1
CCCC(C)N1CCC(N(Cc2ccccc2)C(=O)Nc2cc(OC)ccc2Cl)CC1 (stereo not shown) [A288]	> 72.9
CCCCN1CCC(N(Cc2ccccc2)C(=O)Nc2cnn(C)c2)CC1 [A284]	> 72.3
FC(F)(F)c1cccc(CNC2CCN(Cc3ccccc3)CC2)c1 [B32]	> 55.3
Cc1ccc(C(=O)N2CCC(c3nc4ccccc4s3)CC2)cc1C [D17]	> 53.9
CC1CN(Cc2ccccc2)CC(C)C1NC(=O)Nc1nccs1 (stereo not shown) [B9]	18.6
O=C(NC1CCN(Cc2ccccc2)CC1)NC1CCC2(CC1)OCCO2 [B26]	> 165
COc1ccc(CN(C(=O)Nc2ccccc2C(F)(F)F)C2CCN(C(C)=O)CC2)cc1 [B85]	> 67.6
